Reference: US20250313546A1, “NUCLEIC ACID BINDERS” (UNIVERSITY OF STRATHCLYDE, priority 2022, published 2025)
Converted amounts (≈) assume the structure as drawn.

Assays:
[1] = tested on: A. fumigatus A1160 (MFIG001); conditions: Aspergillus fumigatus, read-out: MIC99 A. fumigatus A1160
[2] = tested on: PolyAU double stranded RNA; assay: Fluorescence intercalator displacement (FID) assay, SYBR-safe probe; conditions: 20 μM compound, 30° C., lower % = stronger binding
Experimental: (§1) The ability of compounds of the invention to bind to DNA and RNA was assessed using a fluorescence intercalator displacement assay. Genomic double stranded DNA (salmon) or PolyAU double stranded RNA is treated with probe molecule (Sybr-Safe) that increases its fluorescence upon binding to nucleic acids.
(§2) polyAU RNA (Polyadenylic acid—Polyuridylic acid sodium salt, double-stranded homopolymer, P1537, Merck) or genomic DNA (Deoxyribonucleic acid sodium salt from salmon testes, D1626, Merck) was dissolved in 1 mM pH 7.4 phosphate buffer (containing 0.27 mM potassium chloride, 13.7 mM sodium chloride) to a concentration of 1 mg/mL in, SybrSafe (SYBR® Safe DNA Gel Stain, ×10,000 in DMSO, S33102 Invitrogen) was used as supplied by the manufacturer in DMSO, and compounds of the invention were prepared as 10 mM stocks in DMSO. These stock solutions were diluted appropriately with each other and 1 mM phosphate buffer to give test solutions comprised of 20 μM compound of the invention, 12500-fold dilution of SybrSafe and 3.76 ng/mL RNA/DNA. Control solutions of RNA/DNA and SybrSafe, RNA/DNA, and SybrSafe at these concentrations were also prepared. Test and control solutions were heated to 30° C. and the fluorescence of each solution was measured using the SYBER filter setting of a StepOnePlus using melt analysis mode (StepOne Software v2.3). The reduction of fluorescence due to the binding of the compound of the invention to the RNA/DNA was calculated as a normalised percentage based on the fluorescence measured due to the control with SybrSafe and RNA/DNA as maximum and the control with only SybrSafe as minimum.
(§3) A reduction in normalised % is indicative of probe displacement and thus strong nucleic acid binding.

[3] = tested on: Genomic double stranded DNA (salmon); assay: as above; conditions: 20 μM compound, 30° C., lower % = stronger binding
Experimental: as §1, §2, §3

[4] = tested on: Staphylococcus aureus (ATCC 43300); assay: Antibacterial MIC, broth microdilution (CLSI); type: cell-based; conditions: for MIC80: Staphylococcus aureus, ATCC43300, read-out: MIC80 S. aureus
[5] = tested on: Escherichia coli (ATCC 25922); assay: Antibacterial MIC, broth microdilution (CLSI); type: cell-based; conditions: Escherichia coli, ATCC25922; read-out: MIC80 E. coli
[6] = tested on: C. neoformans (F10025); conditions: Cryptococcus neoformans, read-out: MIC99 C. neoformans
[7] = tested on: Enterococcus faecalis (ATCC 51299); assay: Antibacterial MIC, broth microdilution (CLSI); type: cell-based; conditions: for MIC80: Enterococcus faecalis, ATCC51299, read-out: MIC80 E. faecalis
[8] = tested on: T. vaginalis; assay: Trichomonas resorufin assay; type: cell-based; conditions: for IC50: Trichomonas vaginalis, read-out: IC50 T. vaginalis; for T. vaginalis Selectivity Indices, Group: SI, IC50 (μM)/IC50 (μM), HEK293 cytotoxicity
[9] = tested on: Candida glabrata (ACPF3309); conditions: Nakaseomyces glabratus, read-out: MIC99 Candida glabrata
Experimental: The Minimum Inhibitory Concentration (MIC, at 99% inhibition) of the compounds was determined using the broth microdilution method as recommended by EUCAST (EUCAST Definitive Document E.DEF 9.3.2, Method for the determination of broth dilution minimum inhibitory concentrations of antifungal agents for conidia forming moulds and EUCAST Definitive Document E.DEF 7.3.2 Method for the determination of broth dilution minimum inhibitory concentrations of antifungal agents for yeasts).

[10] = SI, IC50 (μM)/MIC80 (μM), HEK293 cytotoxicity, Alkyl Amidines and NH Pyrroles

C/N=C(/CCNC(=O)c1cc(NC(=O)c2cc(NC(=O)c3ccc(/C=C/c4ccc(C(F)(F)F)cc4)cc3)cn2C)cn1C)NC [Ia5, 1-methyl-4-(1-methyl-4-(4-((E)-4-(trifluoromethyl)styryl)benzamido)-1H-pyrrole-2-carboxamido)-N—((Z)-3-(methylamino)-3-(methylimino)propyl)-1H-pyrrole-2-carboxamide]
MIC99 [1]: 25 to 50 µg/mL (≈ 39.5 to 78.9 µM) | % Normalised Fluorescence with polyAU RNA [2]: 12% | % Normalised Fluorescence with gDNA [3]: 21% | MIC80 [4]: < 5 µM | MIC80 [5]: > 100 µM

C/N=C(/CCNC(=O)c1cc(NC(=O)c2cc(NC(=O)c3ccc(/C=C/c4ccc5ccccc5c4)cc3)cn2C)cn1C)NC [Ia7, 1-methyl-4-(1-methyl-4-(4-((E)-2-(naphthalen-2-yl)vinyl)benzamido)-1H-pyrrole-2-carboxamido)-N—((Z)-3-(methylamino)-3-(methylimino)propyl)-1H-pyrrole-2-carboxamide]
MIC99 [1]: 25 to 50 µg/mL (≈ 40.6 to 81.2 µM) | % Normalised Fluorescence with polyAU RNA [2]: 24% | % Normalised Fluorescence with gDNA [3]: 10% | MIC80 [4]: < 5 µM | MIC80 [5]: > 100 µM

COc1ccc(/C=C/c2ccc(C(=O)Nc3cc(C(=O)Nc4cc(C(=O)NCCC(=N)NC(C)C)n(C)c4)n(C)c3)cc2)cc1 [Ia18, (E)-N-(3-imino-3-(isopropylamino)propyl)-4-(4-(4-(4-methoxystyryl)benzamido)-1-methyl-1H-pyrrole-2-carboxamido)-1-methyl-1H-pyrrole-2-carboxamide]
MIC99 [6]: 5 to 25 µg/mL (≈ 8.2 to 41 µM) | MIC99 [1]: > 50 µg/mL | % Normalised Fluorescence with polyAU RNA [2]: 9% | % Normalised Fluorescence with gDNA [3]: 6% | MIC80 [7]: 5 to 25 µM (≈ 3.05 to 15.2 µg/mL) | S. aureus Selectivity Indices, Group [4, 10]: B (Group B: 3 < SI <= 5) | MIC80 [4]: 5 to 25 µM (≈ 3.05 to 15.2 µg/mL) | MIC80 [5]: 25 to 100 µM (≈ 15.2 to 61 µg/mL) | IC50 [8]: 5 to 50 µM

[H]/N=C(\CCNC(=O)c1cc(NC(=O)c2cc(NC(=O)c3ccc(C=Cc4ccc5nonc5c4)cc3)cn2C)cn1C)N1CCN(C)CC1 [Ib4, (E)-4-(4-(2-(benzo[c][1,2,5]oxadiazol-5-yl)vinyl)benzamido)-N-(5-((3-imino-3-(4-methylpiperazin-1-yl)propyl)carbamoyl)-1-methyl-1H-pyrrol-3-yl)-1-methyl-1H-pyrrole-2-carboxamide]
MIC99 [9]: 25 to 50 µg/mL (≈ 37.7 to 75.4 µM) | MIC99 [6]: 5 to 25 µg/mL (≈ 7.54 to 37.7 µM) | % Normalised Fluorescence with polyAU RNA [2]: 5% | % Normalised Fluorescence with gDNA [3]: 20% | MIC80 [7]: < 5 µM | MIC80 [4]: < 5 µM | MIC80 [5]: > 100 µM

Cn1cc(NC(=O)c2cc(NC(=O)c3ccc(/C=C/c4cnc5ccccc5c4)cc3)cn2C)cc1C(=O)NCCC(=N)N1CCSCC1 [Ib7, (E)-N-(3-imino-3-thiomorpholinopropyl)-1-methyl-4-(1-methyl-4-(4-(2-(quinolin-3-yl)vinyl)benzamido)-1H-pyrrole-2-carboxamido)-1H-pyrrole-2-carboxamide]
MIC99 [9]: 5 to 25 µg/mL (≈ 7.41 to 37 µM) | MIC99 [6]: 5 to 25 µg/mL (≈ 7.41 to 37 µM) | % Normalised Fluorescence with polyAU RNA [2]: 7% | % Normalised Fluorescence with gDNA [3]: 22% | MIC80 [7]: < 5 µM | E. faecalis Selectivity Indices, Group [7, 10]: C (Group C: 5 < SI <= 10) | S. aureus Selectivity Indices, Group [4, 10]: D (D: SI > 10) | S. aureus Selectivity Index (SI) ([4]; SI, IC50 (μM)/MIC80 (μM), HEK293 cytotoxicity, numeric value): 26 | MIC80 [4]: < 5 µM | MIC80 [5]: > 100 µM | T. vaginalis Selectivity Indices, Group ([8]; Alkyl Amidines and NH Pyrroles): B (Group B: 8 < SI <= 16) | IC50 [8]: 1 to 5 µM

CCCCCC[N+](C)(C)CCNC(=O)c1cc(NC(=O)c2cc(NC(=O)c3ccc(/C=C/c4cnc5ccccc5c4)cc3)cn2C)cn1C [Ic5, (E)-N,N-dimethyl-N-(2-(1-methyl-4-(1-methyl-4-(4-(2-(quinolin-3-yl)vinyl)benzamido)-1H-pyrrole-2-carboxamido)-1H-pyrrole-2-carboxamido)ethyl)hexan-1-aminium]
MIC99 [9]: 5 to 25 µg/mL | MIC99 [1]: > 50 µg/mL | MIC80 [7]: 5 to 25 µM | S. aureus Selectivity Indices, Group ([4]; SI, IC50 (μM)/MIC80 (μM), HEK293 cytotoxicity, Quaternary ammoniums): C (Group C: 5 < SI <= 10) | MIC80 [4]: < 5 µM | MIC80 [5]: > 100 µM | T. vaginalis Selectivity Indices, Group ([8]; Quaternary ammoniums): B (Group B: 0.8 < SI <= 1.5) | IC50 [8]: 1 to 5 µM
